Read-outs that look alike come from different tables or passages of the source.
Tests used:
[1] = In vivo stability in mouse urine at 1 h p.i. (radio-HPLC); design: species or system C57BL/6J mice
Protocol: All animal experiments were conducted in according to the guidelines established by Canadian Council on Animal Care and approved by Animal Ethics Committee of the University of British Columbia. Mice were housed under pathogen-free conditions and kept on twelve hours light and twelve hours dark cycle in the Animal Research Centre, BC Cancer Research Centre, Vancouver, Canada. C57BL/6J mice were anesthetized by inhalation with 2% isoflurane in 2.0 L/min of oxygen, and approximately 4-6 MBq of [^68Ga]Ga-CCZ01099 or [^68Ga]Ga-CCZ01048 was injected intravenously. The mice were allowed to recover and roam freely in their cages. At 1 h post-injection (p.i.), the mice were euthanized by CO2 inhalation and their urine was collected and analyzed on HPLC for metabolite using the conditions described above. In vivo urine stability of [^68Ga]Ga-CCZ01099 and [^68Ga]Ga-CCZ01048 were 34.0±10.4% and ≥98.0% (n≥3), respectively.
The in vivo stability tests in mouse urine were performed as described in Example 1. […] With systematic reduction in the number of N-methylations for the αMSH analogues, a decrease in in vivo stability was observed.

[2] = Biodistribution of 177Lu-labeled αMSH analogues in mice bearing B16F10 mouse melanoma; format: in vivo, C57BL/6J mice; details: mouse, iv, total radioactivity, C57BL/6J mice, B16F10 melanoma
Protocol: (§1) The B16-F10 mouse melanoma cells were cultured and inoculated in mice as described in Example 1.
(§2) For biodistribution studies, approximately 1-2 MBq of ^177Lu-labeled αMSH analogues via tail vein under anesthesia. At 1, 4, 24, and 120 h p.i., the mice were euthanized by CO2 inhalation. Organs/tissues were harvested and the radioactivity was measured as described in Example 1.

[3] = system: B16F10 mouse melanoma; experiment: as above; format: in vivo, C57BL/6J mice; details: C57BL/6J mice, B16F10 melanoma
Protocol: as §1, §2

[4] = system: SK-MEL-1 human melanoma; experiment: SPECT/CT imaging of mice bearing SK-MEL-1 human melanoma; format: in vivo, NRG mice; details: 24 h p.i.
Protocol: SPECT/CT imaging experiments were conducted using the same conditions as described in Example 3. […] (FIG. 6).

Structure (SMILES): CCCC[C@H](NC(=O)CN1CCC(NC(=O)CN2CCN(CC(=O)O)CCN(CC(=O)O)CCN(CC(=O)O)CC2)CC1)C(=O)N[C@H]1CC(=O)NCCCC[C@@H](C(N)=O)N(C)C(=O)[C@H](Cc2c[nH]c3ccccc23)N(C)C(=O)[C@H](CCCNC(=N)N)NC(=O)[C@@H](Cc2ccccc2)NC(=O)[C@H](Cc2c[nH]cn2)NC1=O [[^68Ga]Ga-CCZ01105, metal not drawn]
- In vivo urine stability, intact tracer [1]: 65.8 ± 2.9%

Structure (SMILES): CCCC[C@H](NC(=O)CN1CCC(NC(=O)CN2CCN(CC(=O)O)CCN(CC(=O)O)CCN(CC(=O)O)CC2)CC1)C(=O)N[C@H]1CC(=O)NCCCC[C@@H](C(N)=O)NC(=O)[C@H](Cc2c[nH]c3ccccc23)NC(=O)[C@H](CCCNC(=N)N)NC(=O)[C@@H](Cc2ccccc2)NC(=O)[C@H](Cc2c[nH]cn2)NC1=O [^177Lu-labeled CCZ01048, metal not drawn, reference compound]
- tissue uptake at 1 h ([2]; male, seminal glands, 1 h p.i., read-out: Biodistribution, Seminal glands): 0.16 ± 0.03 %ID/g
- tissue uptake at 1 h ([2]; male, testes, 1 h p.i., read-out: Biodistribution, Testes): 0.27 ± 0.04 %ID/g
- tissue uptake at 4 h ([2]; male, testes, 4 h p.i., read-out: Biodistribution, Testes): 0.16 ± 0.02 %ID/g
- tissue uptake at 1 h ([2]; adrenal glands, 1 h p.i., read-out: Biodistribution, Adrenal glands): 0.38 ± 0.38 %ID/g
- tissue uptake at 1 h ([2]; bone, 1 h p.i., read-out: Biodistribution, Bone): 0.19 ± 0.01 %ID/g
- tissue uptake at 1 h ([2]; heart, 1 h p.i., read-out: Biodistribution, Heart): 0.18 ± 0.02 %ID/g
- tissue uptake at 1 h ([2]; intestine, 1 h p.i., read-out: Biodistribution, Intestine): 0.33 ± 0.06 %ID/g
- tissue uptake at 4 h ([2]; intestine, 4 h p.i., read-out: Biodistribution, Intestine): 0.49 ± 0.46 %ID/g
- tissue uptake at 24 h ([2]; intestine, 24 h p.i., read-out: Biodistribution, Intestine): 0.27 ± 0.23 %ID/g
- tissue uptake at 1 h ([2]; kidneys, 1 h p.i., read-out: Biodistribution, Kidneys): 5.36 ± 0.32 %ID/g
- tissue uptake at 4 h ([2]; kidneys, 4 h p.i., read-out: Biodistribution, Kidneys): 4.89 ± 1.06 %ID/g
- tissue uptake at 24 h ([2]; kidneys, 24 h p.i., read-out: Biodistribution, Kidneys): 1.78 ± 0.32 %ID/g
- tissue uptake at 120 h ([2]; kidneys, 120 h p.i., read-out: Biodistribution, Kidneys): 0.36 ± 0.09 %ID/g
- tissue uptake at 1 h ([2]; liver, 1 h p.i., read-out: Biodistribution, Liver): 0.54 ± 0.08 %ID/g
- tissue uptake at 4 h ([2]; liver, 4 h p.i., read-out: Biodistribution, Liver): 0.48 ± 0.1 %ID/g
- tissue uptake at 24 h ([2]; liver, 24 h p.i., read-out: Biodistribution, Liver): 0.34 ± 0.05 %ID/g
- tissue uptake at 120 h ([2]; liver, 120 h p.i., read-out: Biodistribution, Liver): 0.16 ± 0.04 %ID/g
- tissue uptake at 1 h ([2]; lungs, 1 h p.i., read-out: Biodistribution, Lungs): 0.73 ± 0.4 %ID/g
- tissue uptake at 1 h ([2]; spleen, 1 h p.i., read-out: Biodistribution, Spleen): 0.29 ± 0.02 %ID/g
- tissue uptake at 4 h ([2]; spleen, 4 h p.i., read-out: Biodistribution, Spleen): 0.22 ± 0.06 %ID/g
- tissue uptake at 1 h ([2]; stomach, 1 h p.i., read-out: Biodistribution, Stomach): 0.59 ± 0.16 %ID/g
- tissue uptake at 4 h ([2]; stomach, 4 h p.i., read-out: Biodistribution, Stomach): 0.56 ± 0.08 %ID/g
- tissue uptake at 1 h ([2]; thyroid, 1 h p.i., read-out: Biodistribution, Thyroid): 2.57 ± 0.62 %ID/g
- tissue uptake at 4 h ([2]; thyroid, 4 h p.i., read-out: Biodistribution, Thyroid): 2.16 ± 0.4 %ID/g
- tissue uptake at 24 h ([2]; thyroid, 24 h p.i., read-out: Biodistribution, Thyroid): 1.24 ± 0.32 %ID/g
- tissue to tissue ratio at 1 h ([2]; tumour/blood, 1 h p.i., read-out: Tumour/blood): 32.4 ± 7.58
- tissue to tissue ratio at 4 h ([2]; tumour/blood, 4 h p.i., read-out: Tumour/blood): 206 ± 73.7
- tissue to tissue ratio at 24 h ([2]; tumour/blood, 24 h p.i., read-out: Tumour/blood): 530 ± 45.1
- tissue to tissue ratio at 120 h ([2]; tumour/blood, 120 h p.i., read-out: Tumour/blood): 233 ± 57.8
- tissue to tissue ratio at 1 h ([2]; tumour/kidney, 1 h p.i., read-out: Tumour/kidney): 3.04 ± 0.63
- tissue to tissue ratio at 4 h ([2]; tumour/kidney, 4 h p.i., read-out: Tumour/kidney): 3.65 ± 1.48
- tissue to tissue ratio at 24 h ([2]; tumour/kidney, 24 h p.i., read-out: Tumour/kidney): 2.25 ± 0.15
- tissue to tissue ratio at 120 h ([2]; tumour/kidney, 120 h p.i., read-out: Tumour/kidney): 1.14 ± 0.65
- tissue to tissue ratio at 1 h ([2]; tumour/muscle, 1 h p.i., read-out: Tumour/muscle): 126 ± 34.1
- tissue to tissue ratio at 4 h ([2]; tumour/muscle, 4 h p.i., read-out: Tumour/muscle): 561 ± 208
- tissue to tissue ratio at 24 h ([2]; tumour/muscle, 24 h p.i., read-out: Tumour/muscle): 239 ± 108
- tissue to tissue ratio at 120 h ([2]; tumour/muscle, 120 h p.i., read-out: Tumour/muscle): 80.9 ± 28.1
- excreta dose per gram or mL at 1 h ([2]; urine, 1 h p.i.): 110 ± 81.9 %ID/g
- excreta dose per gram or mL at 4 h ([2]; urine, 4 h p.i.): 13.8 ± 10.2 %ID/g
- excreta dose per gram or mL at 24 h ([2]; urine, 24 h p.i.): 1.99 ± 1.39 %ID/g
- excreta dose per gram or mL at 120 h ([2]; urine, 120 h p.i.): 0.22 ± 0.05 %ID/g
- Biodistribution, B16F10 tumour ([3]; 1 h p.i.): 16.3 ± 3.75 % ID/g
- Biodistribution, B16F10 tumour ([3]; 4 h p.i.): 16.7 ± 3.86 % ID/g
- Biodistribution, B16F10 tumour ([3]; 24 h p.i.): 4.39 ± 1.36 % ID/g
- Biodistribution, B16F10 tumour ([3]; 120 h p.i.): 0.41 ± 0.21 % ID/g
- Biodistribution, Blood ([3]; 120 h p.i.): 0.00 ± 0.00 % ID/g

Structure (SMILES): CCCC[C@H](NC(=O)CN1CCC(NC(=O)CN2CCN(CC(=O)O)CCN(CC(=O)O)CCN(CC(=O)O)CC2)CC1)C(=O)N[C@H]1CC(=O)NCCCC[C@@H](C(N)=O)NC(=O)[C@H](Cc2c[nH]c3ccccc23)N(C)C(=O)[C@H](CCCNC(=N)N)N(C)C(=O)[C@@H](Cc2ccccc2)NC(=O)[C@H](Cc2c[nH]cn2)NC1=O [[^68Ga]Ga-CCZ01104, metal not drawn]
- In vivo urine stability, intact tracer [1]: 92.5 ± 2.1%

Structure (SMILES): CCCC[C@H](NC(=O)CN1CCC(NC(=O)CN2CCN(CC(=O)O)CCN(CC(=O)O)CCN(CC(=O)O)CC2)CC1)C(=O)N[C@H]1CC(=O)NCCCC[C@@H](C(N)=O)N(C)C(=O)[C@H](Cc2c[nH]c3ccccc23)N(C)C(=O)[C@H](CCCNC(=N)N)N(C)C(=O)[C@@H](Cc2ccccc2)NC(=O)[C@H](Cc2c[nH]cn2)NC1=O [[^68Ga]Ga-CCZ01103, metal not drawn]
- In vivo urine stability, intact tracer [1]: 92.6 ± 1.6%

Structure (SMILES): CCCC[C@H](NC(=O)CN1CCC(NC(=O)CN2CCN(CC(=O)O)CCN(CC(=O)O)CCN(CC(=O)O)CC2)CC1)C(=O)N[C@H]1CC(=O)NCCCC[C@@H](C(N)=O)N(C)C(=O)[C@H](Cc2c[nH]c3ccccc23)NC(=O)[C@H](CCCNC(=N)N)N(C)C(=O)[C@@H](Cc2ccccc2)NC(=O)[C@H](Cc2c[nH]cn2)NC1=O [[^68Ga]Ga-CCZ01106] [metal not drawn]
- In vivo urine stability, intact tracer [1]: 82.5 ± 1.8%

Structure (SMILES): CCCC[C@H](NC(=O)CN1CCC(NC(=O)CN2CCN(CC(=O)O)CCN(CC(=O)O)CCN(CC(=O)O)CC2)CC1)C(=O)N[C@H]1CC(=O)NCCCC[C@@H](C(N)=O)NC(=O)[C@H](Cc2c[nH]c3ccccc23)NC(=O)[C@H](CCCNC(=N)N)N(C)C(=O)[C@@H](Cc2ccccc2)NC(=O)[C@H](Cc2c[nH]cn2)NC1=O [[^68Ga]Ga-CCZ01114, metal not drawn]
- In vivo urine stability, intact tracer [1]: 41.4 ± 3.9%

Structure (SMILES): CCCC[C@H](NC(=O)CN1CCC(NC(=O)[C@H](CCCCNC(=O)CN2CCN(CC(=O)O)CCN(CC(=O)O)CCN(CC(=O)O)CC2)NC(=O)CNC(=O)CCCc2ccc(C)cc2)CC1)C(=O)N[C@H]1CC(=O)NCCCC[C@@H](C(N)=O)N(C)C(=O)[C@H](Cc2c[nH]c3ccccc23)NC(=O)[C@H](CCCNC(=N)N)N(C)C(=O)[C@@H](Cc2ccccc2)NC(=O)[C@H](Cc2cnc[nH]2)NC1=O [CCZ01158]
- Blood uptake in SPECT images [4]: Lower blood uptake was observed
- Tumour uptake / retention in SPECT images [4]: showed improved the tumour retention

Reference: patent US11395857B2, “Radiolabeled melanocortin 1 receptor-specific alpha-melanocyte-stimulating hormone analogues for imaging or therapy” (PROVINCIAL HEALTH SERVICES AUTHORITY, priority 2018, dated 2022)
